Results: US20040242904A1, “Novel sordarin derivative isolated from culture fermentations and functions as an antifungal agent” (priority 2001, published 2004)
In brackets after ≈: the same amount, converted by molar mass. Where two headings read alike, the source gives them in different places.

Columns and labels:
[1] = tested on: C. guilliermondi in vitro translation; test: In vitro translation assay, C. guilliermondi; type: biochemical; settings: average of three independent experiments, lower limit of sensitivity about 0.005 μg/ml
Experimental: (§1) In vitro translation assays were performed as described in Shastry, et al. Microbiology, 2001, 147(2):383-90. The IC50 values are the average of three independent experiments. The lower limit of sensitivity is about 0.005 μg/ml.

[2] = target: Human/SIII (S. cerevisiae strain expressing human eEF2) (UniProt P13639, cells depend on it, species not given); test: SwordIII growth inhibition assay, Human/SIII strain; type: cell-based
Source text: (§2) Sordarin and its derivatives bind to the eEF2-ribosome-nucleotide complex in sensitive fungi. Through different in vitro assays using purified components from human, yeast and plant cells, it has been shown that the selective sensitivity to sordarin and its derivatives is dependent on fungal eEF2. The fungal specificity of the sordarin makes eEF2 an attractive anti-infective target. (J Biol Chem. 1998, Feb 6; 273(6):3148-51).
(§3) Specifically, natural products are screened which show a differential activity between the human control and the other strains, although a 100% differential is not required in the initial discovery effort. It may be possible to observe hits solely against the fungal eEF2s, and/or the protozoal eEF2s. In sum, SWORDIII is designed to identify inhibitors of fungal and protozoal eEF2s to provide opportunities for developing anti-infective agents with a unique and selective mechanism of action.
(§4) For this reason, the eEF2 encoding genes from different organisms and several species of pathogenic fungi have been cloned, characterized and expressed in S. cerevisiae at Merck Research Laboratory, as previously described (Microbiology 147:383-90, 2001). Site directed mutagenesis of the C. parapsilosis gene encoding eEF2 to create S521Y, N523S single mutants and the S521Y, N523S double mutant was accomplished by the PCR overlap extension technique (Gene 77:51-59, 1989). […]

[3] = target: C. lusitaniae/SIII (S. cerevisiae strain expressing C. lusitaniae eEF2) (Clavispora lusitaniae, UniProt C4YCF8); test: SwordIII growth inhibition assay, C. lusitaniae/SIII strain; type: cell-based
Source text: as §2, §3, §4

[4] = target: E. tenella/SIII (S. cerevisiae strain expressing E. tenella eEF2) (Eimeria tenella, UniProt A0A184W4F4); test: SwordIII growth inhibition assay, E. tenella/SIII strain; type: cell-based
Sequence of E. tenella/SIII (S. cerevisiae strain expressing E. tenella eEF2) (A0A184W4F4 1-832, change not shown): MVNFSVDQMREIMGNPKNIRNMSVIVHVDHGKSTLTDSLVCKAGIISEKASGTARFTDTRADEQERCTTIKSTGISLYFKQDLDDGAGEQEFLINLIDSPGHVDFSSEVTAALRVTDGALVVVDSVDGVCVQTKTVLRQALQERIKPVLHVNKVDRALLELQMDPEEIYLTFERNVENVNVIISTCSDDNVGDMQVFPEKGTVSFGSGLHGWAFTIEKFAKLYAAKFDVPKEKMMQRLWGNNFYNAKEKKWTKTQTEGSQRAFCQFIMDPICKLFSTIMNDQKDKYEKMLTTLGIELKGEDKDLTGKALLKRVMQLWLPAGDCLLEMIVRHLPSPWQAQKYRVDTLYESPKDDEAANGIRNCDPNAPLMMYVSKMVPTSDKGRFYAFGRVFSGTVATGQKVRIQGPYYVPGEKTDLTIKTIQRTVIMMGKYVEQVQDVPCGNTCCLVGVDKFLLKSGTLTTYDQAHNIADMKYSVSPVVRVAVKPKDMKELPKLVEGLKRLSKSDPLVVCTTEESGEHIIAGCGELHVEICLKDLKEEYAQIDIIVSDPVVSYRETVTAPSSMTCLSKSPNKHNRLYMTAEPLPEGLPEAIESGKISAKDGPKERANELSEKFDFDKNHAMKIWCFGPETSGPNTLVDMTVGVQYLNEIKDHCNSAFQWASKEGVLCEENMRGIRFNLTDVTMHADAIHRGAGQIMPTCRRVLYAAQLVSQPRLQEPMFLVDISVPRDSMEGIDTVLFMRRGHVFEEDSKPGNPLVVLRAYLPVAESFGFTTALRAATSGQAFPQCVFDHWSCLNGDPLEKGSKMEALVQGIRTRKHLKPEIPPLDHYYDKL
Source text: as §2, §3, §4

[5] = tested on: C. krusei in vitro translation; test: In vitro translation assay, C. krusei; type: biochemical; settings: average of three independent experiments
Experimental: as §1

[6] = tested on: C. albicans in vitro translation; test: In vitro translation assay, C. albicans; type: biochemical; settings: average of three independent experiments, lower limit of sensitivity about 0.005 μg/ml
Experimental: as §1

[7] = tested on: C. neoformans in vitro translation; test: In vitro translation assay, C. neoformans; type: biochemical; settings: average of three independent experiments
Experimental: as §1

[8] = tested on: C. parapsilosis in vitro translation; test: In vitro translation assay, C. parapsilosis; type: biochemical; settings: average of three independent experiments
Experimental: as §1

[9] = tested on: C. lusitaniae in vitro translation; test: In vitro translation assay, C. lusitaniae; type: biochemical; settings: average of three independent experiments
Experimental: as §1

[10] = tested on: S. cerevisiae in vitro translation; test: In vitro translation assay, S. cerevisiae; type: biochemical; settings: average of three independent experiments, lower limit of sensitivity about 0.005 μg/ml
Experimental: as §1

[11] = target: T1, S. cerevisiae/SIII (S. cerevisiae strain, S. cerevisiae eEF2) (Saccharomyces cerevisiae, UniProt P32324); test: SwordIII growth inhibition assay, S. cerevisiae/SIII strain; type: cell-based
T1 construct: expressed in transfected cells; host or cells: S. cerevisiae Δeft1 Δeft2 deletion strain YEFD12h
T1 sequence (P32324 whole entry): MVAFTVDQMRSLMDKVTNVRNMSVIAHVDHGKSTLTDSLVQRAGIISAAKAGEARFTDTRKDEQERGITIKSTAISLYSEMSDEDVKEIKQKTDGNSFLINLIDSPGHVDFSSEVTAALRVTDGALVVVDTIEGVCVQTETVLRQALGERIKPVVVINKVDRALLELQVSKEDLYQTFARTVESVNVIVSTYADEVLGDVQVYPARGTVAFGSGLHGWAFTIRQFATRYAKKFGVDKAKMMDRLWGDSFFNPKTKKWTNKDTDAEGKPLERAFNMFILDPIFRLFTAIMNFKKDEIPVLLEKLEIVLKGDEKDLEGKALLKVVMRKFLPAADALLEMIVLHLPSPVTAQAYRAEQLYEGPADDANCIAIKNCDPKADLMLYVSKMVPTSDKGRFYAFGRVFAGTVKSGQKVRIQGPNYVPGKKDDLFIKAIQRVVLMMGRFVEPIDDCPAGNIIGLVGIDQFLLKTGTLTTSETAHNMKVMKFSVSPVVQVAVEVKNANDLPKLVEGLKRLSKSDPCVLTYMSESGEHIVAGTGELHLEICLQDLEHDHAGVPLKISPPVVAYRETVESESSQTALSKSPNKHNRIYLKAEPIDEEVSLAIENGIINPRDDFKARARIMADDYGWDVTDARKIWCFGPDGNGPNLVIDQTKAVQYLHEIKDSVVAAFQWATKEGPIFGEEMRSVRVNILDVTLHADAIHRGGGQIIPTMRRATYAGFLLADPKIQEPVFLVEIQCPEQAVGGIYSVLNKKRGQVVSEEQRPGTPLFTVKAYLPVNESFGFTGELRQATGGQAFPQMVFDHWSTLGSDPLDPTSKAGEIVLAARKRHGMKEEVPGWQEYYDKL
Source text: as §2, §3, §4

[12] = target: C. krusei/SIII (S. cerevisiae strain expressing C. krusei eEF2) (Pichia kudriavzevii, UniProt A0A2U9R6P9); test: SwordIII growth inhibition assay, C. krusei/SIII strain; type: cell-based
Sequence of C. krusei/SIII (S. cerevisiae strain expressing C. krusei eEF2) (A0A2U9R6P9 1-830, change not shown): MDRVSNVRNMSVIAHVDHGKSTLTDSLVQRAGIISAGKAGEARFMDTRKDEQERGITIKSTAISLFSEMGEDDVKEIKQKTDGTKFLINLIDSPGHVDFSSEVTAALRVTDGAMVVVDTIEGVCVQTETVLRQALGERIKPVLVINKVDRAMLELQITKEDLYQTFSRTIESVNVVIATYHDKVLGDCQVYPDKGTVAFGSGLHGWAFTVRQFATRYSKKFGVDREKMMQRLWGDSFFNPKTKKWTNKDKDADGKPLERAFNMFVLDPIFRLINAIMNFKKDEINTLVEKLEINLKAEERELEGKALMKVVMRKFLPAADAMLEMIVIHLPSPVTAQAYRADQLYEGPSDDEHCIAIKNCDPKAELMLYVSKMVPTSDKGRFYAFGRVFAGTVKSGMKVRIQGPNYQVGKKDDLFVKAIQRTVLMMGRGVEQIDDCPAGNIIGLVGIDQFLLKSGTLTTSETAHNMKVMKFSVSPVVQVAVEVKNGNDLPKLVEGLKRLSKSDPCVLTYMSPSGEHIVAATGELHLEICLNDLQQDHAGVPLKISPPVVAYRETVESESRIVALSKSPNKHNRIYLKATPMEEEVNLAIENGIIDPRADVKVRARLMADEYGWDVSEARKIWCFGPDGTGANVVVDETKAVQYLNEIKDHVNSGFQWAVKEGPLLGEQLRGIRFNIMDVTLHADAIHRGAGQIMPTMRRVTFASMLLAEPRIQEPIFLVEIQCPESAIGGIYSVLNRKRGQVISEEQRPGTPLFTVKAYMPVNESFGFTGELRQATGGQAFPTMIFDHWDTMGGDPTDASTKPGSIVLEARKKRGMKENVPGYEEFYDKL
Source text: as §2, §3, §4

[13] = target: C. neoformans/SIII (S. cerevisiae strain expressing C. neoformans eEF2) (Cryptococcus neoformans, UniProt Q9HFZ8); test: SwordIII growth inhibition assay, C. neoformans/SIII strain; type: cell-based
Sequence of C. neoformans/SIII (S. cerevisiae strain expressing C. neoformans eEF2) (Q9HFZ8 1-838, change not shown): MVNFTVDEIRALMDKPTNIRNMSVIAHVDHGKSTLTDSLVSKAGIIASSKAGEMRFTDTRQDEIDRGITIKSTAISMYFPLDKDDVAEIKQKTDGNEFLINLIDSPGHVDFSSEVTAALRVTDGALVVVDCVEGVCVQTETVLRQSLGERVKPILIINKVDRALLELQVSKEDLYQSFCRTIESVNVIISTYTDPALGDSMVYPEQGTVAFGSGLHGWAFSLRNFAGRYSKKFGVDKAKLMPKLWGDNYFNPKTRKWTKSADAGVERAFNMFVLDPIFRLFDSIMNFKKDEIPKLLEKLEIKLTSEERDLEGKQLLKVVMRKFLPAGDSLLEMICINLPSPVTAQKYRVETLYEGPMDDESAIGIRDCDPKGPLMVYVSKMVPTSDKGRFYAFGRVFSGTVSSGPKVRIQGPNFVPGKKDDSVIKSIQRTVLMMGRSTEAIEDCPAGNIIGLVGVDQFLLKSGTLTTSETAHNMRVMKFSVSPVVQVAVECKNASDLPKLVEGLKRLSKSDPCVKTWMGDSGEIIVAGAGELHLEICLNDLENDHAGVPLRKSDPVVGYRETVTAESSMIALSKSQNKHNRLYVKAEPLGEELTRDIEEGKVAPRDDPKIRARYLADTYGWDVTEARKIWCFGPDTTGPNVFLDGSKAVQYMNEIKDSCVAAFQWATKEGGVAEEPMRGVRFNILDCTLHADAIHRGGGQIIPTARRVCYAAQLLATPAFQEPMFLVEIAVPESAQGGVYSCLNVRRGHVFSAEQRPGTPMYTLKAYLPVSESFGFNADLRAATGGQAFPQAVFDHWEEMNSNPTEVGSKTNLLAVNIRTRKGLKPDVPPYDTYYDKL
Source text: as §2, §3, §4

[14] = target: T2, C. glabrata/SIII (S. cerevisiae strain expressing C. glabrata eEF2) (Candida glabrata, UniProt Q6FYA7); test: SwordIII growth inhibition assay, C. glabrata/SIII strain; type: cell-based
T2 construct: S. cerevisiae strains expressing full length heterologous eEF2s; expressed in transfected cells; host or cells: S. cerevisiae Δeft1 Δeft2 deletion strain YEFD12h
T2 sequence (Q6FYA7 whole entry): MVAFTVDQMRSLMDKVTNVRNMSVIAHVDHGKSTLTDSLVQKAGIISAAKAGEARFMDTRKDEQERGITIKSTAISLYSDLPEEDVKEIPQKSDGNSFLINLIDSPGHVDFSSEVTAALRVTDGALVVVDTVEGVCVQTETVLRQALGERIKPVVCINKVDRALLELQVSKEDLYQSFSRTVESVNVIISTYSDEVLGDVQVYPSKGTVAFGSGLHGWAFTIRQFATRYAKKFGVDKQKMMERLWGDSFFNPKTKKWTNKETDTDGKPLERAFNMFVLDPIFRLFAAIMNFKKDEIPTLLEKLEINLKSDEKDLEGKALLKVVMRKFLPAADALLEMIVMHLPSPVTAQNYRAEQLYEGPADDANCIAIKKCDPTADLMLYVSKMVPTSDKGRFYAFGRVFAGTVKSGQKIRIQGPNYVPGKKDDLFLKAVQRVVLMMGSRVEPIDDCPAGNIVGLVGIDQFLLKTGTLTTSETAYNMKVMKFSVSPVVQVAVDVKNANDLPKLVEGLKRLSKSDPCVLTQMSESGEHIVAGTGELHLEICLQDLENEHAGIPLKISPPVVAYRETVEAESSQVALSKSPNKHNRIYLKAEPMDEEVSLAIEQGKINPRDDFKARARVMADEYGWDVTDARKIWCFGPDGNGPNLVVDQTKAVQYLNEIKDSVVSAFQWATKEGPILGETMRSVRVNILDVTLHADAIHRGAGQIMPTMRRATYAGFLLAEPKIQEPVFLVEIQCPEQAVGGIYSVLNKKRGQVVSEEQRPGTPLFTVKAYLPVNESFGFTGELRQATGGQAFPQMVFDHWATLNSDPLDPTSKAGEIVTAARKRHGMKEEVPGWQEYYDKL
Source text: as §2, §3, §4

[15] = tested on: C. glabrata in vitro translation; test: In vitro translation assay, C. glabrata; type: biochemical; settings: average of three independent experiments
Experimental: as §1

[16] = target: A. fumigatus/SIII (S. cerevisiae strain expressing A. fumigatus eEF2) (Aspergillus fumigatus, UniProt Q4X0G7); test: SwordIII growth inhibition assay, A. fumigatus/SIII strain; type: cell-based
Sequence of A. fumigatus/SIII (S. cerevisiae strain expressing A. fumigatus eEF2) (Q4X0G7 1-839, change not shown): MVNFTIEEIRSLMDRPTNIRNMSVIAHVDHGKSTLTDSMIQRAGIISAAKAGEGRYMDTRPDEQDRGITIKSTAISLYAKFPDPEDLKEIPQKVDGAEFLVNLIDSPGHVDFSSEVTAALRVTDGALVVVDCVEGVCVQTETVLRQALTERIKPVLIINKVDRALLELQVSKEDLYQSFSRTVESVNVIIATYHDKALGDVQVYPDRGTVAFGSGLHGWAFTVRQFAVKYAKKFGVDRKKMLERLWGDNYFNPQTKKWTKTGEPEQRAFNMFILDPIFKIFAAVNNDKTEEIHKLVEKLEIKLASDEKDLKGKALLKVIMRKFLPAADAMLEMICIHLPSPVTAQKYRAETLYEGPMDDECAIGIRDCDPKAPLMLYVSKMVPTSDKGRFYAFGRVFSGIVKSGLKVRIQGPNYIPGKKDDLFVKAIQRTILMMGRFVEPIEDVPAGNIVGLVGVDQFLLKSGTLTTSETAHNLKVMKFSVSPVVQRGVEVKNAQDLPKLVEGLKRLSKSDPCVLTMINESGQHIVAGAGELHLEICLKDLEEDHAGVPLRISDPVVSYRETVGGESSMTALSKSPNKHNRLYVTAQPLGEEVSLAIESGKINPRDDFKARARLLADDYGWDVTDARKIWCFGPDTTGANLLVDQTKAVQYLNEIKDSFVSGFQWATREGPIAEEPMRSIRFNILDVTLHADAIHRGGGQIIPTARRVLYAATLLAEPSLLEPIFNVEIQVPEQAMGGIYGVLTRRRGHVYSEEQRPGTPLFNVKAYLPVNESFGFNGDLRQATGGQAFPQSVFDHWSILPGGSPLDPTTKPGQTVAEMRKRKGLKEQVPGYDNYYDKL
Source text: as §2, §3, §4

[17] = tested on: A. nidulans in vitro translation; test: In vitro translation assay, A. nidulans; type: biochemical; settings: average of three independent experiments
Experimental: as §1

[18] = SC medium, 29° C., approximately 16 hours, read-out: IC50 (μg/ml)
[19] = read-out: IC50 (μg/ml), SC medium, 29° C., approximately 16 hours

| Structure (SMILES) | IC50 [1] | IC50 [5] | IC50 [6] | IC50 [7] | IC50 [8] | IC50 [9] | IC50 [10] | IC50 [11] | IC50 [14] | IC50 [15] | IC50 [17] | other results |
| --- | --- | --- | --- | --- | --- | --- | --- | --- | --- | --- | --- | --- |
| CO[C@H]1[C@@H](O)[C@H](O)[C@H](OC[C@@]23C[C@@H]4[C@H](C)CC[C@H]4[C@@]4(C=O)CC2C=C(C(C)C)[C@@]34C(=O)O)O[C@@H]1C [Sordarin] | 0.01 µg/mL (≈ 0.0203 µM) | >100 µg/mL | 0.006 µg/mL (≈ 0.0122 µM) | 0.2 µg/mL (≈ 0.406 µM) | >100 µg/mL | >100 µg/mL | 0.006 µg/mL (≈ 0.0122 µM) | 0.386 µM | 12.7 µM | 0.036 µg/mL (≈ 0.0731 µM) | 2.6 µg/mL (≈ 5.28 µM) | GI50 [2, 18]: > 203 µM; IC50 [3, 18]: > 203 µM; IC50 [4, 18]: > 203 µM; IC50 [12, 18]: > 203 µM; IC50 [13, 18]: > 203 µM; IC50 [16, 18]: > 203 µM |
| COC1C(C)OC(OCC23CC4C(C)CCC4C4(C=O)CC2C=C(C(C)C)C43C(=O)O)C(O)C12OC(=O)C(CCCCCCCC(=O)O)O2 (stereo not shown) [The Compound of Formula I] | 0.006 µg/mL | 1 µg/mL | 0.006 µg/mL | 0.02 µg/mL | 0.5 µg/mL | 0.5 µg/mL | 0.006 µg/mL | 0.217 µM | 7.24 µM | 0.015 µg/mL | 0.6 µg/mL | GI50 [2, 19]: > 29 µM; IC50 [3, 19]: > 29 µM; IC50 [4, 19]: > 29 µM; IC50 [12, 19]: 21.7 µM; IC50 [13, 19]: 7.24 µM; IC50 [16, 19]: 29 µM |
